The test concerns the target T1, AtPDIL1-2 (Arabidopsis thaliana, UniProt Q9SRG3).
T1 construct: gene PDIL1-2; full-length cDNA (1527 bp ORF, start codon to C-terminal KDEL) in pET-32a, His-tagged fusion about 72 kDa, E. coli, Ni-NTA purified
T1 sequence (Q9SRG3 1-508): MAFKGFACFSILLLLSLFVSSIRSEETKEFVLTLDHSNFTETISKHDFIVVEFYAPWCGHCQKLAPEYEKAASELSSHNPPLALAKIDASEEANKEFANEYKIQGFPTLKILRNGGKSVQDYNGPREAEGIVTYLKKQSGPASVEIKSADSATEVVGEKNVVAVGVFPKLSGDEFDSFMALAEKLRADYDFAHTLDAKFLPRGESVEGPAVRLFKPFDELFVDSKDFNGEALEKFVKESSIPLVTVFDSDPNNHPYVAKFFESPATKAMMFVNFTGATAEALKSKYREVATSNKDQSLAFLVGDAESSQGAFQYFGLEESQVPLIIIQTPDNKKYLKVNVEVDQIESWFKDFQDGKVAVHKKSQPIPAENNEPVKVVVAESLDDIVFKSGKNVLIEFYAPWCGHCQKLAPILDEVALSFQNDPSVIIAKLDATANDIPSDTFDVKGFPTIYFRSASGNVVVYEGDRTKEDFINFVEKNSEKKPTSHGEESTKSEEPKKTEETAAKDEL
The test is described as follows: RNase A oxidative refolding assay, cCMP hydrolysis at […] nm. The format is biochemical. The conditions noted are these: 3.5 uM protein, 10 uM reduced denatured RNase, 4.5 mM cCMP, 1 mM GSH, 0.2 mM GSSG, pH 8; TCP concentration not given.

In turn, `Oc1c(Cl)cc(Cl)cc1Cl` [2,4,6-TCP] displayed a maximum inhibition of 16%.
